Measurements from US12396995B2, “Substituted 4-aminoisoindoline-1,3-dione compounds and second active agents for combined use” (Celgene Corporation, priority 2019, dated 2025).

Test system: primary CLL cells (CD5+CD19+ tumor cells)
Assay: Ex vivo apoptosis of B-cell CLL patient cells, Compound 1 with ibrutinib (flow cytometry, Caspase 3)
Type: cell-based, human
Details: 144 hrs
Protocol: After 144 hrs of treatment with both the agents, flow cytometric analysis was used to determine the number of tumor cells that were viable or apoptotic.
The tumor cell count was assessed by staining the patient PBMCs in each condition with tumor cell surface markers CD5 & CD19 along with Live/Dead fixable dye to exclude the dead cells and followed by intracellular staining for Caspase3 antibody to identify the apoptotic cells and was measured by flow cytometry (Attune NxT, Thermo Fisher). The live tumor cell count for each condition was calculated by normalizing to the precision count beads added to each sample.
For apoptosis analysis, the percentage of apoptosis combining both “early” (Caspase 3 positive and Live-Dead fixable dye negative) and “late” apoptosis (Caspase 3 and Live-Dead fixable dye positive) cell gates subtracting the baseline DMSO value was graphed using GraphPad Prism 8.0.0.0. The Ymax (maximal percentage of apoptosis achieved) values from apoptosis curves were calculated by performing a nonlinear regression curve fitting using log(agonist) vs. normalized response—Variable slope analysis and identifying the maximum value on GraphPad Prism 8.0.0 (Table 9).

O=C1CC[C@H](N2C(=O)c3cccc(NCc4ccc(CN5CC(N6CCOCC6)C5)cc4F)c3C2=O)C(=O)N1 [Compound 1, (S)-2-(2,6-dioxopiperidin-3-yl)-4-((2-fluoro-4-((3-morpholinoazetidin-1-yl)methyl)benzyl)amino)isoindoline-1,3-dione]
Ymax of Pt 11 (%), maximal apoptosis (DMSO + Cpd1 DRC (no ibrutinib)): 14.40% | Ymax of Pt 12 (%), maximal apoptosis (DMSO + Cpd1 DRC (no ibrutinib)): 14.19% | Ymax of Pt 13 (%), maximal apoptosis (DMSO + Cpd1 DRC (no ibrutinib)): 36.93% | Ymax of Pt 14 (%), maximal apoptosis (DMSO + Cpd1 DRC (no ibrutinib)): 17.21% | Ymax of Pt 11 (%), maximal apoptosis (ibrutinib 0.001 uM + Cpd1 DRC): 19.80% | Ymax of Pt 12 (%), maximal apoptosis (ibrutinib 0.001 uM + Cpd1 DRC): 15.67% | Ymax of Pt 13 (%), maximal apoptosis (ibrutinib 0.001 uM + Cpd1 DRC): 26.75% | Ymax of Pt 14 (%), maximal apoptosis (ibrutinib 0.001 uM + Cpd1 DRC): 17.87% | Ymax of Pt 11 (%), maximal apoptosis (ibrutinib 0.01 uM + Cpd1 DRC): 18.66% | Ymax of Pt 12 (%), maximal apoptosis (ibrutinib 0.01 uM + Cpd1 DRC): 13.66% | Ymax of Pt 13 (%), maximal apoptosis (ibrutinib 0.01 uM + Cpd1 DRC): 30.53% | Ymax of Pt 14 (%), maximal apoptosis (ibrutinib 0.01 uM + Cpd1 DRC): 18.30% | Ymax of Pt 11 (%), maximal apoptosis (ibrutinib 0.1 uM + Cpd1 DRC): 12.33% | Ymax of Pt 12 (%), maximal apoptosis (ibrutinib 0.1 uM + Cpd1 DRC): 17.47% | Ymax of Pt 13 (%), maximal apoptosis (ibrutinib 0.1 uM + Cpd1 DRC): 32.49% | Ymax of Pt 14 (%), maximal apoptosis (ibrutinib 0.1 uM + Cpd1 DRC): 13.59% | Ymax of Pt 11 (%), maximal apoptosis (ibrutinib 1 uM + Cpd1 DRC): 19.73% | Ymax of Pt 12 (%), maximal apoptosis (ibrutinib 1 uM + Cpd1 DRC): 22.48% | Ymax of Pt 13 (%), maximal apoptosis (ibrutinib 1 uM + Cpd1 DRC): 29.70% | Ymax of Pt 14 (%), maximal apoptosis (ibrutinib 1 uM + Cpd1 DRC): 17.65% | Ymax of Pt 11 (%), maximal apoptosis (ibrutinib 10 uM + Cpd1 DRC): 29.73% | Ymax of Pt 12 (%), maximal apoptosis (ibrutinib 10 uM + Cpd1 DRC): 24.18% | Ymax of Pt 13 (%), maximal apoptosis (ibrutinib 10 uM + Cpd1 DRC): 35.37% | Ymax of Pt 14 (%), maximal apoptosis (ibrutinib 10 uM + Cpd1 DRC): 19.33%
